# According to patent US10683286B2, “Furazan-3-carboxylic acid derivatives and use thereof in treatment of cancer” (FREIE UNIVERSITAET BERLIN, priority 2016, dated 2020):
# Entries after “also recorded” stand apart in the source; their conditions may differ. Like-named read-outs stand apart in the source and are kept apart here. Where a SMILES comes first, the peptide text is derived from it. [ ]: non-standard residue; d: D form. The star is where a group is joined. 5FAM = O=C1OC2(c3ccc(O)cc3Oc3cc(O)ccc32)c2ccc(C(=O)*)cc21; pY = N[C@@H](Cc1ccc(OP(=O)(O)O)cc1)C(=O)O
# Experiments:
# STAT5b-SH2 domain = biological target: T1, STAT5b-SH2 domain (Homo sapiens, UniProt P51692); assay: Competitive fluorescence polarization (FP) assay, STAT5b-SH2 domain; details: for activity / binding to the STAT5-SH2 domain: in words
# T1 sequence (P51692 136-703): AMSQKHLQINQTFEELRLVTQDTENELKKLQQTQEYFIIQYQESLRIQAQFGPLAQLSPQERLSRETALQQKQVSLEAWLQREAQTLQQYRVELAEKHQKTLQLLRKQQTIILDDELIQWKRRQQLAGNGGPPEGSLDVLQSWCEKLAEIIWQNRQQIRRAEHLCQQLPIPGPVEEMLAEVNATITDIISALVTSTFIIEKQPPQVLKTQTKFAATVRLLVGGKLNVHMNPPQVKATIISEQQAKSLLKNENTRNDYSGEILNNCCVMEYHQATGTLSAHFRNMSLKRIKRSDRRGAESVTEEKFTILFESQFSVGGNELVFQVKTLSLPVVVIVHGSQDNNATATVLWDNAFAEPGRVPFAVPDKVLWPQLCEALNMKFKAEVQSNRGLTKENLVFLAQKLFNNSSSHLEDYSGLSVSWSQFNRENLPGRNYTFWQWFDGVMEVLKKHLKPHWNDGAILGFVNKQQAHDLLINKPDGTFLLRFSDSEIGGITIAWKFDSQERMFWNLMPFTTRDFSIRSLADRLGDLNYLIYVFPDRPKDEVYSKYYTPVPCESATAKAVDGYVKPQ
# Description: The ChemBioNet fragment collection composed in accordance with the substructure composition of the World Drug Index (WDI) was screened both for enhancing and inhibiting fragments of the phosphopeptide-STAT5 interaction.
# The clone for Stat5b expression was kindly provided by Thorsten Berg (MPI, Martinsried). Expression of that truncated version of Stat5b (aa 136-703) cloned into a modified pQE70, with N-terminal MBP-tag and C-terminal His-tag was conducted on autoinduction medium (overnight express/Novagen). Cells were grown to an optical density (O.D.) of 0.3 at 37° C., then the temperature was reduced to 20° C. for further 48 h of expression. […] The protein was purified by Ni-chelating chromatography followed by gel filtration (Superdex 200/10 mM HEPES pH 7.8, 100 mM NaCl, 1 mM EDTA, 1 mM DTT, 10% glycerol). A yield of 15 mg MBP-Stat5b-His per liter of culture was obtained and aliquots (200 μl of 3.2 mg/ml) were quick-frozen and stored at −80° C., ready for use.
# 17000 compounds from the (FMP) ChemBioNet library were tested in a competitive-based fluorescence polarization (FP) assay to investigate the ability of compounds to bind to STAT5b-SH2 domain by displacing respective fluorophore-labeled peptides (5-carboxyfluorescein-GY (PO3H2) LSLPPW-NH2). The peptide purity was >95% and the screening were performed at room temperature. The final concentration of buffer components used was 10 mM HEPES (pH 7.5), 1 mM EDTA, 0.1% Igepal CA-630, 50 mM NaCl, and 5% DMSO. The final concentration of protein used was at 65 nM which correspond to the dissociation constants (Kd) for the individual protein-peptide interactions in assay buffer. The protein was first added to the black 384 well plate (Corning 3676) followed by test compounds and fluorophore-labeled peptide. The plates were centrifuged, and measured using Safire^2 well plate reader (Tecan, Crailsheim, Germany) after 15 minutes incubation at room temperature. […] For the analysis of the data GraphPad Prism 5 was used. Ligand efficiencies (LE) were calculated using equation derived as followed. LE=−ΔG°/HA with (ΔG°) is the standard free energy of binding in KJ and HA is the number of non-hydrogen atoms.
# BaF3/FLT3-ITD cells = assay: Cell proliferation assay (Alamar blue); assay type: cell-based, murine; details: for inhibition of cell proliferation: 48 h, Alamar blue, FLT3-ITD cells
# Description: Having proven the functional inhibition of STAT5 as a transcription factor, the effect of STAT5 inhibitors on the proliferation of cancer cells carrying the common FLT3-ITD mutation was investigated. Cells were incubated for 48 h and cell proliferation was quantified by the Alamar blue assay (FIG. 5). […] For comparison, we have tested both compounds on non-STAT5-dependent cell lines and the cytotoxicity effect were negligible up to 500 μM. (FIG. S9).
# (§1) The effect of compounds on cell lines was evaluated by In Vitro Toxicology Assay Kit, Resazurin based with indicator dye Alamar Blue (Sigma). Adherent and suspension cells were plated at 5×10^3 per well and 1×10^4 per well respectively in triplicate in 96-well plates and incubated in medium containing 10% FBS. For adherent cell, the complete medium was replaced after 24 hours and incubated with test medium containing vehicle control or serial concentration of compounds for 48 hours at 37° C. The remaining wells in the periphery of the microtiter well plate were added PBS and not used to avoid evaporation effects. Alamar Blue was then added, and all plates were incubated at 37° C., and a colorimetric change was measured according to the methods provided by the provided protocol.
# Solubility = assay type: physicochemical; details: compared to the 5-aryl-substituted tetrazole
# STAT5 = STAT5 phosphorylation, Western blot in BaF3/FLT3-ITD cells; details: for reduction of STAT5 phosphorylation / IC50: 6 h; for reduction of STAT5 phosphorylation / tyrosine phosphorylation of STAT5, dose dependence / overall expression of endogenous STAT5: BaF3/FLT3-ITD; for IC50: read-out: IC50 of STAT5 phosphorylation inhibition, BaF3/FLT3-ITD cells; for tyrosine phosphorylation of STAT5, dose dependence: 6 h treatment
# Description: At first, the ligand-mediated inhibition of STAT5 phosphorylation at conserved tyrosine residues (Tyr694 and Tyr699) was investigated, which is initiated by the binding of the SH2 domain to phosphorylated cell surface receptors. […] After 6 h cells were harvested to determine the level of STAT5 phosphorylation using phosphotyrosine-specific antibodies (FIGS. 4A-B).
# (§2) Cells were seeded at 0.5×10^6 in 6 well plate and allowed to grow overnight followed by 6 hour incubation with test compounds (0.1% DMSO) before protein extraction with M-PER™ Mammalian Protein Extraction Reagent (Pierce) containing 1% (vol/vol) complete protease inhibitor cocktail (Roche Molecular Biochemicals) and 1% (vol/vol) phosphate inhibitor cocktail (Sigma). For Western blotting, 15 μg of protein from each sample were then separated on a 10% SDS-PAGE and transferred to a PVDF membrane. The blots were blocked with TBST buffer (20 mM Tris-HCl [pH 7.4], 140 mM sodium chloride, and 0.05% Tween 20) containing 5% BSA at room temperature for 1 hour, washed 3 times in TBST buffer, and incubated with primary antibody overnight at 4° C. The membranes were then incubated with HRP-conjugated secondary antibody at room temperature for 1 hour. The reaction products were detected using Syngene Pxi4 imager and quantified by Image J.
# STAT3 = biological target: T2, STAT3 (Mus musculus, UniProt P42227); assay: STAT3 phosphorylation and expression in cells; assay type: cell-based; details: selectivity in cells
# T2 construct: endogenous in cells; context BaF3/FLT3-ITD
# Description: as §2
# [1] = system: Pim1 kinase, cyclin D1 and Bcl-xl; assay: Expression of transcriptional targets of STAT5, Western blot in BaF3/FLT3-ITD cells; assay type: cell-based, murine; details: BaF3/FLT-ITD cells, after 6 h
# Text: (FIGS. 7A, B). Next, the functional effects of STAT5 inhibitors (6) and (15) on cellular transcription were investigated. For the purpose, the expression of three transcriptional targets of STAT5, namely Pim1 kinase, cyclin D1 and Bcl-xl, which play essential roles in cell cycle progression and survival, was monitored by Western Blotting (FIGS. 6A, B).
# [2] = system: non-STAT5-dependent cell lines; assay: Cytotoxicity on non-STAT5-dependent cell lines; assay type: cell-based; details: up to 500 μM
# Description: Carol Stocking (University Hospital Hamburg-Eppendorf). […] Cells were incubated at 37° C., 5% CO2 atmosphere.
# as §1
# T2 sequence (P42227 whole entry): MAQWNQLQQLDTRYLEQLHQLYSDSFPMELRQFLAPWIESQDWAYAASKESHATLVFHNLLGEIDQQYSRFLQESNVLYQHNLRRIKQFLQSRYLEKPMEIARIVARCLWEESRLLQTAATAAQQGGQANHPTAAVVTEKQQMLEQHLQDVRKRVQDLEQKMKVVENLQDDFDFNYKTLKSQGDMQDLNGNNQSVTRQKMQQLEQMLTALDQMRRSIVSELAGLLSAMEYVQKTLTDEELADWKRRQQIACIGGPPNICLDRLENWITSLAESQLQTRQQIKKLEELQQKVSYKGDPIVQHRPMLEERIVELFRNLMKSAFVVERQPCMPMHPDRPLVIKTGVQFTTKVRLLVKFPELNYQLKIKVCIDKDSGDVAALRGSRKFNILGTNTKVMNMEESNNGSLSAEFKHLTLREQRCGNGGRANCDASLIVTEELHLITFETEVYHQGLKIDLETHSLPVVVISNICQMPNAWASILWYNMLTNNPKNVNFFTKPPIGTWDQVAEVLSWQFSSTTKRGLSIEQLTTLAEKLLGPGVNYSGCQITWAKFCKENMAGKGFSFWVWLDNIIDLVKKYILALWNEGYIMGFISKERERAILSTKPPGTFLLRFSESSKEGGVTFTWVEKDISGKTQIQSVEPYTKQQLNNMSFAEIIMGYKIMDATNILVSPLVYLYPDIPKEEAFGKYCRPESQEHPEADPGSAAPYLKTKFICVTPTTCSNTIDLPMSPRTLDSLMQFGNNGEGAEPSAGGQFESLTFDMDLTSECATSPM
smiles,measurement,setting,value
COC(=O)c1nonc1NC(=O)Cn1cnnn1 [Compound 14],Ki,STAT5b-SH2 domain,> 500 µM
same,activity / binding to the STAT5-SH2 domain,STAT5b-SH2 domain,abolished the activity
COC(=O)c1nonc1NCn1nnnc1-c1cccc([N+](=O)[O-])c1 [Compound 22],Ki,STAT5b-SH2 domain,> 500 µM
COC(=O)c1nsnc1NCn1cnnn1 [Compound 8],Ki,STAT5b-SH2 domain,> 500 µM
same,activity / binding to the STAT5-SH2 domain,STAT5b-SH2 domain,inactive
O=C(O)c1nonc1NCn1nnnc1CCOc1ccccc1 [Compound 104],"cellular activity (cell proliferation curves, FIG. 8)",BaF3/FLT3-ITD cells,significant cellular activity
"O=C(O)c1nonc1NCn1nnnc1Cc1ccccc1 [Compound 30, 4-((5-Benzyl-1H-tetrazol-1-yl)-methylamino)-furazan-3-carboxylic Acid]",solubility,Solubility,strongly improved solubility
same,reduction of STAT5 phosphorylation,STAT5; 50 μM,clear reduction; also recorded: reduces STAT5 phosphorylation significantly
same,IC50,STAT5,30.8 µM
same,Ki,STAT5b-SH2 domain,8.6 ± 2 µM
same,LE,STAT5b-SH2 domain,1.31
"c1nnn[nH]1 [Compound 5, 1H-tetrazole, reference compound]",Ki,"STAT5b-SH2 domain; Table 1, inhibitors of STAT5b, KI converted from IC50",> 500 µM
same,activity / binding to the STAT5-SH2 domain,STAT5b-SH2 domain,inactive
CCCCOC(=O)c1nonc1NCn1cnnn1 [Compound 7],Kd,STAT5b-SH2 domain,145 µM
same,Ki,STAT5b-SH2 domain,48.2 ± 5 µM
same,LE,"STAT5b-SH2 domain; Table 1, ligand efficiency",1.30 kJ/mol* atom#
COc1ccc(Cc2nnnn2CNc2nonc2C(=O)O)cc1 [Compound 177],"cellular activity (cell proliferation curves, FIG. 8)",BaF3/FLT3-ITD cells,significant cellular activity
O=C(O)c1nonc1NCc1ccccn1 [Compound 11],Ki,STAT5b-SH2 domain,> 500 µM
same,activity / binding to the STAT5-SH2 domain,STAT5b-SH2 domain,completely inactive
O=C(O)c1nonc1NCn1nnnc1-c1cccc(C(F)(F)F)c1 [Compound 21],Kd,STAT5b-SH2 domain,0.86 µM
same,Ki,STAT5b-SH2 domain,0.86 ± 0.05 µM
same,LE,STAT5b-SH2 domain,1.38
COC(=O)c1nonc1NCn1nnnc1-c1ccccc1 [Compound 17],Kd,STAT5b-SH2 domain,37 µM
same,Ki,STAT5b-SH2 domain,37.1 ± 6 µM
same,LE,STAT5b-SH2 domain,1.15
O=C(O)c1nonc1NCn1nnnc1CCc1ccccc1 [Compound 169],"cellular activity (cell proliferation curves, FIG. 8)",BaF3/FLT3-ITD cells,significant cellular activity
COC(=O)c1nonc1NCn1nnnc1-c1cccc(OC(F)(F)F)c1 [Compound 25],Ki,STAT5b-SH2 domain,16.7 ± 4.3 µM
same,LE,STAT5b-SH2 domain,1.01
O=C(O)c1nonc1NCn1nnnc1COCCc1ccccc1 [Compound 113],"cellular activity (cell proliferation curves, FIG. 8)",BaF3/FLT3-ITD cells,significant cellular activity
"COC(=O)c1nonc1NCn1cnnn1 [Compound 6, Methyl 4-((1H-tetrazol-1-yl)-methylamino)-furazan-3-carboxylate]",STAT3 phosphorylation,STAT3,negligible effects
same,endogenous STAT3 expression,STAT3,negligible effects
same,"Pim1, cyclin D1 and Bcl-xL expression",[1],dose dependent reduction
same,inhibition of cell proliferation,BaF3/FLT3-ITD cells,clear dose-dependent inhibition
same,cytotoxicity effect,[2],negligible
same,reduction of STAT5 phosphorylation,STAT5; 25 μM,clear reduction
same,"tyrosine phosphorylation of STAT5, dose dependence",STAT5,decrease the tyrosine phosphorylation of STAT5 in a dose dependent manner
same,overall expression of endogenous STAT5,STAT5,no effect
same,IC50,STAT5,44.2 µM
same,Kd,STAT5b-SH2 domain,76 µM
same,Ki,STAT5b-SH2 domain,37.4 ± 1.2 µM
same,LE,"STAT5b-SH2 domain; Table 1, ligand efficiency",1.58 kJ/mol* atom#
O=C(O)c1nonc1NCn1nnnc1COc1ccccc1 [Compound 100],"cellular activity (cell proliferation curves, FIG. 8)",BaF3/FLT3-ITD cells,significant cellular activity
O=C(O)c1nonc1NCn1nnc2ccccc21 [Compound 12],Ki,STAT5b-SH2 domain,188 ± 25 µM
same,LE,"STAT5b-SH2 domain; Table 1, ligand efficiency",1.12 kJ/mol* atom#
same,activity / binding to the STAT5-SH2 domain,STAT5b-SH2 domain,completely inactive
"Nc1nonc1C(=O)O [Compound 4, 4-Amino-furazan-3-carboxylic Acid]",LE,"STAT5b-SH2 domain; Table 1, ligand efficiency",2.14 kJ/mol* atom#
same,activity / binding to the STAT5-SH2 domain,STAT5b-SH2 domain,inactive
O=C(O)c1nonc1NCn1nnnc1-c1cccc(F)c1 [Compound 27],Kd,STAT5b-SH2 domain,0.62 µM
same,Ki,STAT5b-SH2 domain,0.62 ± 0.09 µM
same,LE,STAT5b-SH2 domain,1.61
O=C(O)c1nonc1NCn1nnnc1Cc1cccc(F)c1 [Compound 178],"cellular activity (cell proliferation curves, FIG. 8)",BaF3/FLT3-ITD cells,significant cellular activity
O=C(O)c1nonc1NCn1nnnc1-c1ccc(F)cc1 [Compound 28],LE,STAT5b-SH2 domain,1.42
O=C(O)c1nonc1NCn1nnnc1CCCc1ccccc1 [Compound 196],"cellular activity (cell proliferation curves, FIG. 8)",BaF3/FLT3-ITD cells,significant cellular activity
Cc1ccc(Cc2nnnn2CNc2nonc2C(=O)O)cc1 [Compound 174],"cellular activity (cell proliferation curves, FIG. 8)",BaF3/FLT3-ITD cells,significant cellular activity
O=C(O)c1nonc1NCn1ccnn1 [Compound 9],Ki,STAT5b-SH2 domain,191 ± 24 µM
same,LE,"STAT5b-SH2 domain; Table 1, ligand efficiency",1.41 kJ/mol* atom#
same,activity / binding to the STAT5-SH2 domain,STAT5b-SH2 domain,completely inactive
COC(=O)c1nonc1NCn1nnnc1-c1ccc(C(F)(F)F)cc1 [Compound 18],Ki,STAT5b-SH2 domain,94.9 ± 2.1 µM
same,LE,STAT5b-SH2 domain,0.88
O=C(O)c1nonc1NCn1cncn1 [Compound 10],Ki,STAT5b-SH2 domain,47.5 ± 8.5 µM
same,LE,"STAT5b-SH2 domain; Table 1, ligand efficiency",1.64 kJ/mol* atom#
same,activity / binding to the STAT5-SH2 domain,STAT5b-SH2 domain,completely inactive
COC(=O)c1nonc1NCn1nnnc1-c1cccc(NS(C)(=O)=O)c1 [Compound 23],Ki,STAT5b-SH2 domain,18.3 ± 2.4 µM
same,LE,STAT5b-SH2 domain,1.00
O=C(O)c1nonc1NCn1nnnc1-c1cccc(OCc2ccccc2)c1 [Compound 19],Ki,STAT5b-SH2 domain,1.2 ± 0.5 µM
same,LE,STAT5b-SH2 domain,1.16
COC(=O)c1nonc1NCn1nnnc1-c1cccc(O)c1 [Compound 24],Ki,STAT5b-SH2 domain,22.3 ± 3 µM
same,LE,STAT5b-SH2 domain,1.21
O=C(O)c1nonc1NCn1nnnc1Cc1cccc(Cl)c1 [Compound 173],"cellular activity (cell proliferation curves, FIG. 8)",BaF3/FLT3-ITD cells,significant cellular activity
O=C(O)c1nonc1NCn1nnnc1-c1ccc(-c2ccccc2)cc1 [Compound 29],Kd,STAT5b-SH2 domain,0.8 µM
same,Ki,STAT5b-SH2 domain,0.8 ± 0.2 µM
same,LE,STAT5b-SH2 domain,1.30
"O=Cc1ccc(OP(=O)(O)O)cc1 [Compound 1, 4-Formylphenyl-dihydrogen-phosphate, reference compound]",Ki,STAT5b-SH2 domain,> 500 µM
CC(=O)OC(C)OC(=O)c1nonc1NCn1cnnn1 (stereo not shown) [Compound 15],STAT3 phosphorylation,STAT3,negligible effects
same,endogenous STAT3 expression,STAT3,negligible effects
same,"Pim1, cyclin D1 and Bcl-xL expression",[1],dose dependent reduction
same,inhibition of cell proliferation,BaF3/FLT3-ITD cells,clear dose-dependent inhibition
same,cytotoxicity effect,[2],negligible
same,"tyrosine phosphorylation of STAT5, dose dependence",STAT5,decrease the tyrosine phosphorylation of STAT5 in a dose dependent manner
same,overall expression of endogenous STAT5,STAT5,no effect
same,IC50,STAT5,68.9 µM
same,Kd,STAT5b-SH2 domain,14 µM
same,Ki,STAT5b-SH2 domain,4.6 ± 1.7 µM
same,LE,"STAT5b-SH2 domain; Table 1, ligand efficiency",1.45 kJ/mol* atom#
O=C(O)c1nonc1NCn1cccn1 [Compound 13],Kd,STAT5b-SH2 domain,122 µM
same,Ki,STAT5b-SH2 domain,122 ± 7.3 µM
same,LE,"STAT5b-SH2 domain; Table 1, ligand efficiency",1.49 kJ/mol* atom#
O=C(O)c1nonc1NCn1nnnc1-c1cccc(OC(F)(F)F)c1 [Compound 26],Ki,STAT5b-SH2 domain,3 ± 0.7 µM
same,LE,STAT5b-SH2 domain,1.21
COC(=O)c1nonc1NCn1nnnc1-c1cccc(C(F)(F)F)c1 [Compound 20],Ki,STAT5b-SH2 domain,9.5 ± 1.8 µM
same,LE,STAT5b-SH2 domain,1.10
"CC(C)C[C@H](NC(=O)[C@H](Cc1ccc(OP(=O)(O)O)cc1)NC(=O)CNC(=O)c1ccc2c(c1)C(=O)OC21c2ccc(O)cc2Oc2cc(O)ccc21)C(=O)N[C@@H](CO)C(=O)N[C@@H](CC(C)C)C(=O)N1CCC[C@H]1C(=O)N1CCC[C@H]1C(=O)N[C@@H](Cc1c[nH]c2ccccc12)C(N)=O [Compound 2, Fluo-GY*LSLPPW-NH2, reference compound] (5FAM-G[pY]LSLPPW-NH2)",Kd,STAT5b-SH2 domain,0.055 µM
same,Ki,STAT5b-SH2 domain,0.055 ± 0.006 µM
same,LE,"STAT5b-SH2 domain; Table 1, ligand efficiency",0.42 kJ/mol* atom#
O=C(O)c1nonc1NCn1nnnc1COCc1ccccc1 [Compound 108],"cellular activity (cell proliferation curves, FIG. 8)",BaF3/FLT3-ITD cells,significant cellular activity
O=C(O)c1nonc1NCn1nnnc1Cc1ccc(F)cc1 [Compound 31],Ki,STAT5b-SH2 domain,7.2 ± 1.9 µM
same,LE,STAT5b-SH2 domain,1.28
